Measurements reported in patent US10508309B2, “Methods for detecting and treating variants of seborrheic keratoses” (THE GENERAL HOSPITAL CORPORATION, priority 2013, dated 2019).

Tested on: SK
Assay: Response to A44/puro (summary of features for KA, SK, and SCC)
Details: seborrheic keratosis (SK) column; the KA and SCC cells print "?"

SMILES: COc1ccc(C[C@H](N)C(=O)N[C@H]2[C@@H](O)[C@H](n3cnc4c(N(C)C)ncnc43)O[C@@H]2CO)cc1 [puro, puromycin]
- Response to A44/puro?: Yes
